The record followed here is US20070071773A1, “Compositions and methods for the treatment and prophylaxis of infections caused by gram positive bacteria” (priority 2002, published 2007).

Experiment [1] relates to JS95. Briefly: IL-8 proteolytic activity of supernatant of JS95 grown in the presence of SilCR. The conditions noted are these: JS95 grown in the presence of SilCR (25 then 50 μg/ml); FIG. 15A. In kind it is cell-based, Group A Streptococcus (GAS). On the procedure: (§1) […] was grown in the absence and presence of SilCR (50 μg/ml). IL-8 was incubated with the indicated supernatant fractions and then subjected to 18% SDS-PAGE. The separated protein bands were electro-transferred to a nitrocellulose membrane. Anti-IL-8 antibody and a secondary antibody conjugated to horseradish peroxidase were used to detect IL-8. The number of the lane represents incubation of IL-8 with: 1, DMEM+FCS (control); 2, JS95 supernatant; 3, JS95 supernatant grown in the presence of SilCR; 4, JS95 supernatant, pretreated with pefabloc SC; 5, supernatant of JS95 grown in the absence of SilCR, then 50 μg/ml of SilCR was added to the degradation assay.
15A The column numbers represent the ELISA results after incubation of IL-8 with: 1, DMEM+FCS (control); and the supernatants of: 2, JS95; 3, JS95 grown in the presence of SilCR; 4, JS95 pretreated with aprotenin; 5, JS95 pretreated with soybean trypsin inhibitor; 6, JS95 pretreated with benzamidine. The background of the ELISA assay (0.08±0.004) was subtracted from the shown results. The data represent the mean ± SD, of three separate experiments. […]
(§2) C. Proteolysis of chemokines was determined by ELISA and Dot-blot. IL-8 content was quantified by ELISA using the Quantikine kit for determination of human IL-8 (R&D Systems, Minneapolis, Minn.) according to the manufacturer's instructions.

Experiment [2] relates to trypsin-like GAS protease. Nature of the experiment: Degradation of IL-8 by JS95 supernatant (Western blot, ELISA). The experiment is classed as biochemical, Group A Streptococcus (GAS). The conditions noted are these: supernatant of JS95 grown without SilCR, 50 μg/ml SilCR added to the assay; FIG. 14. As to the method:
as §1
15A The column numbers represent the ELISA results after incubation of IL-8 with: 1, DMEM+FCS (control); and the supernatants of: 2, JS95; 3, JS95 grown in the presence of SilCR; 4, JS95 pretreated with aprotenin; 5, JS95 pretreated with soybean trypsin inhibitor; 6, JS95 pretreated with benzamidine. The background of the ELISA assay (0.08±0.004) was subtracted from the shown results. The data represent the mean ± SD, of three separate experiments.
A. Cell culture of JS95 strain was grown in THY to an OD600 of 0.2. To determine the effect of SilCR on chemokine proteolysis, the culture was split into two equal fractions, of which one received SilCR (25 μg/ml). Both fractions were further incubated until they reached an OD600 of 0.3. Bacteria were washed twice with sterile PBS and once with DMEM containing 10% FCS. The washed pellets were re-suspended in DMEM supplemented with FCS to their original volumes. SilCR (50 μg/ml) was added to the fraction that was grown in the presence of SilCR, and the two fractions were further incubated for 1 h at 37° C. Supernatants were collected after centrifugation. The proteolysis reaction contained: 0.08 ml of each supernatant, 100 ng of recombinant human IL-8/CXCL8 (R&D systems, Minneapolis, Minn.) or 30 ng of recombinant murine MIP-2 (R& D systems, Minneapolis, Minn.), 20 mM MOPS pH=7.2 in a final volume of 0.1 ml. The reaction was conducted for 1 h at 37° C., and stopped by boiling for 1 min.
B. For testing protease inhibitors, the supernatants were pre-incubated with the inhibitor for 30 min at 37° C., followed by the proteolysis reaction. The following concentrations of inhibitors were used: 4 mM pefabloc SC; 0.5 mM PMSF; 0.3 μM aprotinin; 1 mM benzamidine; 100 μg/ml soybean trypsin inhibitor (STI).
as §2

For experiment [3], the system named is C5a peptidase. Briefly: Surface expressed C5a peptidase of GAS in the absence and presence of SilCR. The note with it: absence vs presence of SilCR (not shown). The experiment is classed as cell-based, Group A Streptococcus (GAS).

As for “DIFKLVIDHISMKARKK (SilCR peptide) [17 amino acid synthetic peptide, predicted mature form of the pheromone peptide encoded by the SilCR ORF; used at 70% or 90% purity]”, the “IL-8 proteolytic activity of the strain” value in experiment [1] is given as “markedly reduced”. In addition, in experiment [2], the “IL-8 proteolysis with purified peptide added to the degradation assay” value was “did not itself block IL-8 proteolysis”. Also, in experiment [3], the “amount of surface expressed C5a peptidase” value is given as “did not observe any change”.
